What all share (assay): Anti-microbial rate of finished cotton textiles, FZ/T73023-2006 D.8 shocking method
Holding throughout (assay type): cell-based

Experiment [1] relates to Candida Albicans (C. albicans 10231). To be noted: finishing liquid 1.0 wt %; for killing at 1 %: Candida albicans, read-out: Anti-microbial rate (%) of cotton textiles finished with compound E (1.0 wt %), C. albicans. An excerpt:
(§1) Each of the reaction products (i.e., compound E) according to Examples 1-21 was used to prepare an anti-microbial agent (e.g., a finishing liquid), and the anti-microbial effects were different depending on compound E and conditions of use.
(§2) Remarks: 1) in the data of anti-microbial rate in Table 5: Examples 1-9 used a soaking-rolling-drying process to finish cotton fabric, where the bath ratio (i.e., the ratio of the weight of a liquid containing compound E to the weight of the cotton fabric) was 20:1, the residual liquid ratio was 90%, and the drying process was conducted at 85° C. for 30 minutes; Examples 10-18 were prepared by a soaking-high speed spinning-drying method, where the bath ratio was 20:1, the residual liquid ratio was 90%, and the drying process was conducted at 85° C. for 20 min; Examples 19-21 were prepared by a spraying-spinning-drying process with a bath ratio of 30:1, a residual liquid ratio of 85% after drying, and the drying process was conducted at 105° C. for 5 minutes.
(§3) 2) Table 5 data test method: FZ/T73023-2006 anti-microbial textiles D.8 shocking method. In addition, the inhibition zone method (FZ/T73023-2006 anti-microbial textiles—Appendix E—inhibition zone method) was used to test whether the active compound (E) was released from the finished cotton textiles, the inhibition zone test result of the 21 examples and zwitterions were 0 mm, and thus compound E was not released from the finished cotton textiles. The anti-microbial finishing agent used in the comparative experiment was zwitterion with the molecular structure
(§4) 3) The composition of the finishing liquid in Table 5 was: compound E 1.0 wt %, sodium bicarbonate 1.0 wt %, and the rest of the finishing liquid was water.

The test system of experiment [2] is Escherichia Coli (E. coli, ATCC25922). Particulars: for killing at 1 %: Escherichia coli, ATCC25922, finishing liquid 1.0 wt %, read-out: Anti-microbial rate (%) of cotton textiles finished with compound E (1.0 wt %), E. coli; for Anti-microbial rate (%) of cotton textiles finished with compound E (1.0 wt %), E. coli: finishing liquid 1.0 wt %.
Excerpt: as §1, §2, §3, §4

For experiment [3], the system named is Staphylococcus Aureus (S. aureus, ATCC 6538). To be noted: for killing at 1 %: Staphylococcus aureus, ATCC6538, finishing liquid 1.0 wt %, read-out: Anti-microbial rate (%) of cotton textiles finished with compound E (1.0 wt %), S. aureus; for Anti-microbial rate (%) of cotton textiles finished with compound E (1.0 wt %), S. aureus: finishing liquid 1.0 wt %.
Excerpt: as §1, §2, §3, §4

Like-named read-outs stand apart in the source and are kept apart here.

`C[N+](C)(CCCS(=O)(=O)[O-])CCOc1nc(Cl)nc(Cl)n1` [Comparative Experiment, reference compound]: the killing at 1 % turned out to be 95% in experiment [1] (times of washing 0); 78% in experiment [1] (times of washing 10); 69% in experiment [1] (times of washing 50); 99.9% in experiment [2] (times of washing 0); 83% in experiment [2] (times of washing 10); 75% in experiment [2] (times of washing 50). The killing at 1 % in experiment [3] (times of washing 0) was found to be 99.9%; in experiment [3] (times of washing 10), 86%; in experiment [3] (times of washing 50), 80%.

As for `C[N+](C)(C)CCNc1nc(Cl)nc(Cl)n1` [Example 3], the killing at 1 % in experiment [1] (times of washing 0) amounted to 99.9%; in experiment [1] (times of washing 10) it was 99.9%; in experiment [1] (times of washing 50), 99.9%; in experiment [2] (times of washing 0), 100%; in experiment [2] (times of washing 10) it was 99.9%; in experiment [2] (times of washing 50) it was 99.2%. In addition, the killing at 1 % worked out at 100% in experiment [3] (times of washing 0), 99.9% in experiment [3] (times of washing 10) and 99.9% in experiment [3] (times of washing 50).

As to `C[N+](C)(C)COc1nc(Cl)nc(Cl)n1` [Example 5], the killing at 1 % in experiment [1] (times of washing 0) is 99.9%; in experiment [1] (times of washing 10), 99.9%; in experiment [1] (times of washing 50) it was 97.9%; in experiment [2] (times of washing 0), 100%; in experiment [2] (times of washing 10), 99.9%; in experiment [2] (times of washing 50) it was 99.1%. The results for the killing at 1 % in experiment [3] (times of washing 0), in experiment [3] (times of washing 10) and in experiment [3] (times of washing 50) were 100%, 99.9% and 99.9%, respectively.

As to `CCCCCCCC[N+](C)(C)CC(C)Oc1nc(Cl)nc(Cl)n1` (stereo not drawn) [Example 6], the killing at 1 % in experiment [1] (times of washing 0) was 99.9%; in experiment [1] (times of washing 10), 99.9%; in experiment [1] (times of washing 50), 97.9%; in experiment [2] (times of washing 0), 100%; in experiment [2] (times of washing 10), 99.9%; in experiment [2] (times of washing 50), 99.5%. Further, the killing at 1 % worked out at 100% in experiment [3] (times of washing 0), 99.9% in experiment [3] (times of washing 10) and 99.9% in experiment [3] (times of washing 50).

In the case of `CCCCCCCCCCCCCC[n+]1ccn(CCCNc2nc(C)nc(Cl)n2)c1` [Example 7], the killing at 1 % in experiment [1] (times of washing 0) came to 99.9%; in experiment [1] (times of washing 10), 99.9%; in experiment [1] (times of washing 50) it was 98.6%; in experiment [2] (times of washing 0), 100%; in experiment [2] (times of washing 10), 99.9%; in experiment [2] (times of washing 50), 99.9%. Besides, the killing at 1 % in experiment [3] (times of washing 0) amounted to 100%; in experiment [3] (times of washing 10), 99.9%; in experiment [3] (times of washing 50) it was 99.9%.

Take `CCCCCCCCCC[n+]1ccc(CCOc2nc(Cl)nc(Br)n2)cc1` [Example 8]: the killing at 1 % was 99.9% in experiment [1] (times of washing 0); 99.9% in experiment [1] (times of washing 10); 98.9% in experiment [1] (times of washing 50); 100% in experiment [2] (times of washing 0); 99.9% in experiment [2] (times of washing 10); 99.5% in experiment [2] (times of washing 50). Also, the killing at 1 % amounted to 100% in experiment [3] (times of washing 0), 99.9% in experiment [3] (times of washing 10) and 99.9% in experiment [3] (times of washing 50).

Take `C[n+]1ccc(CNc2nc(Cl)nc([N+](=O)[O-])n2)cc1` [Example 9]: the killing at 1 % in experiment [1] (times of washing 0) is 99.9%; in experiment [1] (times of washing 10), 99.9%; in experiment [1] (times of washing 50), 99.2%; in experiment [2] (times of washing 0), 100%; in experiment [2] (times of washing 10), 99.9%; in experiment [2] (times of washing 50), 99.9%. Moreover, the killing at 1 % is 100% in experiment [3] (times of washing 0), 99.9% in experiment [3] (times of washing 10) and 99.9% in experiment [3] (times of washing 50).

With `Cc1nc(Cl)nc(OCCn2cc[n+](C)c2)n1` [Example 12], the killing at 1 % in experiment [1] (times of washing 0) was 99.9%; in experiment [1] (times of washing 10), 99.9%; in experiment [1] (times of washing 50), 91.9%; in experiment [2] (times of washing 0) it was 100%; in experiment [2] (times of washing 10), 99.9%; in experiment [2] (times of washing 50), 98.9%. Also, the killing at 1 % worked out at 100% in experiment [3] (times of washing 0), 99.9% in experiment [3] (times of washing 10) and 99.5% in experiment [3] (times of washing 50).

With `C[n+]1ccn(CCCCCCCCCCCCCCCCCCOc2nc(Cl)nc(Cl)n2)c1` [Example 13], the killing at 1 % turned out to be 99.9% in experiment [1] (times of washing 0); 99.9% in experiment [1] (times of washing 10); 98.9% in experiment [1] (times of washing 50); 100% in experiment [2] (times of washing 0); 99.9% in experiment [2] (times of washing 10); 99.5% in experiment [2] (times of washing 50). The killing at 1 % in experiment [3] (times of washing 0) worked out at 100%; in experiment [3] (times of washing 10) it was 99.9%; in experiment [3] (times of washing 50), 99.9%.

For the compound `C[n+]1ccn(CCCNc2nc(Cl)nc(Cl)n2)c1` [Example 14], the killing at 1 % in experiment [1] (times of washing 0) amounted to 99.9%; in experiment [1] (times of washing 10), 99.9%; in experiment [1] (times of washing 50), 99.9%; in experiment [2] (times of washing 0) it was 100%; in experiment [2] (times of washing 10), 99.9%; in experiment [2] (times of washing 50) it was 99.1%. The results for the killing at 1 % in experiment [3] (times of washing 0), in experiment [3] (times of washing 10) and in experiment [3] (times of washing 50) were 100%, 99.9% and 99.5%, respectively.

Take `C[n+]1ccc(COc2nc(Cl)nc(Cl)n2)cc1` [Example 15]: the killing at 1 % is 99.9% in experiment [1] (times of washing 0); 99.9% in experiment [1] (times of washing 10); 92.9% in experiment [1] (times of washing 50); 100% in experiment [2] (times of washing 0); 99.9% in experiment [2] (times of washing 10); 98.9% in experiment [2] (times of washing 50). Also, the killing at 1 % turned out to be 100% in experiment [3] (times of washing 0), 99.9% in experiment [3] (times of washing 10) and 99.1% in experiment [3] (times of washing 50).

`CCCCCCCCCCCC[n+]1cc[n+](CCCCCCCCCCCC)c(CCSc2nc(Cl)nc(Cl)n2)c1` [Example 16]: the killing at 1 % in experiment [1] (times of washing 0) was 99.9%; in experiment [1] (times of washing 10), 99.9%; in experiment [1] (times of washing 50), 93.6%; in experiment [2] (times of washing 0), 100%; in experiment [2] (times of washing 10), 99.9%; in experiment [2] (times of washing 50), 99.8%. Besides, the killing at 1 % in experiment [3] (times of washing 0) worked out at 100%; in experiment [3] (times of washing 10), 99.9%; in experiment [3] (times of washing 50) it was 99.9%.

Take `CCCCCCCCCCCC[N+](C)(C)CCN(CCOc1nc(Cl)nc(Cl)n1)CC[N+](C)(C)CCCCCCCCCCCC` [Example 17]: the killing at 1 % in experiment [1] (times of washing 0) is 99.9%; in experiment [1] (times of washing 10), 99.9%; in experiment [1] (times of washing 50), 99.3%; in experiment [2] (times of washing 0), 100%; in experiment [2] (times of washing 10), 99.9%; in experiment [2] (times of washing 50), 99.5%. The killing at 1 % in experiment [3] (times of washing 0) was determined as 100%; in experiment [3] (times of washing 10), 99.9%; in experiment [3] (times of washing 50), 99.9%.

As to `C[N+](C)(C)CCCCCCCCCCCCCCCCCCN(CCCCCCCCCCCCCCCCCC[N+](C)(C)C)CCOc1nc(Cl)nc(Cl)n1` [Example 18], the killing at 1 % in experiment [1] (times of washing 0) was 99.9%; in experiment [1] (times of washing 10), 99.9%; in experiment [1] (times of washing 50), 96.9%; in experiment [2] (times of washing 0), 100%; in experiment [2] (times of washing 10), 99.9%; in experiment [2] (times of washing 50), 97.9%. Also, the killing at 1 % worked out at 100% in experiment [3] (times of washing 0), 99.9% in experiment [3] (times of washing 10) and 98.9% in experiment [3] (times of washing 50).

`Clc1nc(Cl)nc(OCCC[P+](c2ccccc2)(c2ccccc2)c2ccccc2)n1` [Example 20]: the killing at 1 % in experiment [1] (times of washing 0) is 99.9%; in experiment [1] (times of washing 10) it was 99.9%; in experiment [1] (times of washing 50), 92.9%; in experiment [2] (times of washing 0), 100%; in experiment [2] (times of washing 10) it was 99.9%; in experiment [2] (times of washing 50) it was 95.9%. Moreover, the killing at 1 % in experiment [3] (times of washing 0) was found to be 100%; in experiment [3] (times of washing 10) it was 99.9%; in experiment [3] (times of washing 50) it was 97.9%.

For the compound `Clc1nc(Cl)nc(OCCC[P+](c2ccccc2)(c2ccccc2)c2ccccc2)n1.[Br-]` [Example 21], the “Anti-microbial rate (%) of cotton textiles finished with compound E (1.0 wt %), C. albicans” value in experiment [1] (times of washing 0) is on record as 99.9%; in experiment [1] (times of washing 10), 99.9%; in experiment [1] (times of washing 50), 93.9%. For the same compound, the “Anti-microbial rate (%) of cotton textiles finished with compound E (1.0 wt %), E. coli” value in experiment [2] (times of washing 0) is given as 99.99%; in experiment [2] (times of washing 10) it was 99.9%; in experiment [2] (times of washing 50), 96.9%. Besides, the “Anti-microbial rate (%) of cotton textiles finished with compound E (1.0 wt %), S. aureus” value in experiment [3] (times of washing 0) is reported as 99.99%; in experiment [3] (times of washing 10), 99.9%; in experiment [3] (times of washing 50), 98.9%.

For the origin of these results see patent US12290073B2, “Anti-microbial compound and methods of use” (SHENZHEN UNIVERSITY, priority 2019, dated 2025).
